The target of one experiment is Stromelysin-1 (Homo sapiens, UniProt P08254). The experiment in a line: Fluorimetric Assay. The following applies: pH 7; 25 °C.
A further experiment concerns the target Collagenase 3 (Homo sapiens, UniProt P45452). The experiment is described as follows: Fluorimetric Assay. The following applies: pH 7; 25 °C.

Sequence of Stromelysin-1 (P08254 whole entry): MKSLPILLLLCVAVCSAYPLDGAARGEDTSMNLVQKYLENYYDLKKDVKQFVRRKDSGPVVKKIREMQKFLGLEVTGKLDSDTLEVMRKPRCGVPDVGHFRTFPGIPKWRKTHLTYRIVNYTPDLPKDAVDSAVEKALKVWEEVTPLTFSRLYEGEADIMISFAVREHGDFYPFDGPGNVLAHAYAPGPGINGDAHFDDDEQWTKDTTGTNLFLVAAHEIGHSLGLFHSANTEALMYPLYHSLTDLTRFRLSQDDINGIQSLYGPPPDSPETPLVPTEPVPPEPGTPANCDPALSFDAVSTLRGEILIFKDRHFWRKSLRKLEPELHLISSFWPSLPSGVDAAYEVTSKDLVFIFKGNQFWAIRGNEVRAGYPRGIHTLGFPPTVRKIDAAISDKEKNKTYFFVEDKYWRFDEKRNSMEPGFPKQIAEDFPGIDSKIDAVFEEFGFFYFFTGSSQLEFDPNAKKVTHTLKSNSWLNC

As to `Oc1csc(Nc2nc3ccccc3s2)n1` [2-(benzo[d]-thiazol-2-ylimino)-thiazolidin-4-one, 1a], the IC50 (in general, the concentration that gives 50% inhibition) at Stromelysin-1 came to 36.7 µM.
`O=C1N/C(=N/c2nsc3ccccc23)S/C1=C/c1ccccc1` [2-(benzo[d]isothiazol-3-ylimino)-5-benzylidenethiazolidin-4-one, 2b] came in with a half-maximal inhibitory concentration (IC50) against Collagenase 3 of 32 µM.

(Values after BindingDB's records for doi:10.1016/j.bioorg.2010.11.002 (University of Catania, 2011).)
